These results are taken from PMC4640659, “Antidepressant- and Anxiolytic-Like Effects of New Dual 5-HT1A and 5-HT7 Antagonists in Animal Models” (PLoS ONE, 2015).

Assay [1] deals with mice. The assay can be described thus: Four-plate test in mice. In kind it is in vivo.
A further assay deals with 5-HT7 receptors. The conditions noted are these: authors' previous studies; cited from earlier work.
Assay [2] has as its system rats. Briefly: Elevated plus maze (EPM) test in rats. It is filed as in vivo. The source says:
Plus-maze apparatus (an automated device produced by Campden Instruments Ltd, UK) made of durable, high density, nonporous black plastic, elevated to a height of 50 cm, consisted of two open arms (50 cm x 10 cm) and two closed arms (50 cm x 10 cm, and 30 cm high walls), arranged so that the two arms of each type were opposite each other. Floor of the plus-maze was made of infrared transparent material what means that there are no visible sensors. The plus-maze was placed in a darkened room; only the centre of the apparatus was illuminated with low-density light (30 lux measured on the maze level). Plus-maze apparatus was connected to PC software by control chassis. Each rat was gently placed in the centre of the plus-maze, facing one of the closed arms, immediately after a 5-min adaptation period in a plastic black box (60 cm x 60 cm x 35 cm). During a 5-min test period, automated Motor Monitor System recorded the number of entries into the closed and open arms, the time spent in either type of the arms. After each trial the maze was wiped clean. Studied compounds and reference drug were administered (i.p.) 30 min before the test.

The target of a further assay is T1, human 5-HT2A receptor (Homo sapiens, UniProt P28223).
T1 construct: expressed in transfected cells; host or cells: CHO-K1
The assay can be described thus: Radioligand binding, [3H]-ketanserin, CHO-K1 cell membranes. The conditions noted are these: read-out: Serotonergic Ki 5-HT2A.

Assay [3] concerns mice. The assay can be described thus: Forced swim test (FST) in mice. It is filed as in vivo. The conditions noted are these: for Decrease of immobility time: vs control; for Effect on immobility time, given alone at sub-effective dose: i.p., fluoxetine 10, reboxetine 5, bupropion 2.5, HBK-14 1.25, HBK-15 0.625 mg/kg. On the procedure:
The studies were carried out on mice according to the method described by Porsolt et al.. The animals were dropped individually into glass cylinders (height 25 cm, diameter 10 cm) containing 10 cm of water, maintained at 23–25°C. Mice were left in the cylinder for 6 min. […] The mouse was judged to be immobile when it remained floating passively in the water.

The target in assay [4] is T2, human serotonin 5-HT7 receptor (Homo sapiens, UniProt P34969).
T2 construct: host or cells: CHO-K1 (with CRE-bla reporter)
The assay can be described thus: cAMP functional assay (LANCE Ultra TR-FRET), CHO-K1 cells. The conditions noted are these: for Kb / Antagonist activity weaker than reference antagonist SB-269970 / Emax: 5-HT7; for Kb: Cheng-Prusoff equation, read-out: Antagonist mode Kb; for Antagonist activity weaker than reference antagonist SB-269970: range over HBK-14 and HBK-15; for Emax: CHO-K1, mean of two independent experiments in duplicate, read-out: Agonist mode Emax. In kind it is cell-based.
Description: CHO-K1 cells were transfected with a beta lactamase (bla) reporter gene under control of the cyclic AMP response element (CRE) (Life Technologies).
Thawed cells were resuspended in stimulation buffer (HBSS, 5 mM HEPES, 0.5 IBMX, and 0.1% BSA at pH 7.4) at 2x10^5 cells/ml for 5-HT7 receptor. The same volume (10 μl) of cell suspension was added to tested compounds for 5-HT7 receptor. Samples were loaded onto a white opaque half area 96-well microplate. […] The agonist and antagonist were added simultaneously. Cell stimulation was performed for 1h at room temperature. After incubation, cAMP measurements were performed with homogeneous TR-FRET immunoassay using the LANCE Ultra cAMP kit (PerkinElmer, USA). 10 μl of EucAMP Tracer Working Solution and 10 μl of ULight-anti-cAMP Tracer Working Solution were added, mixed, and incubated for 1 h. The TR-FRET signal was read on an EnVision microplate reader (PerkinElmer, USA).

A further assay concerns the target 5-HT1A receptors. The following applies: authors' previous studies; cited from earlier work.
The next assay deals with α1-adrenoceptor. Briefly: Radioligand binding, [3H]-prazosin, rat cerebral cortex. The following applies: read-out: Adrenergic Ki α1.
Assay [5] has as its target T3, Serotonin transporter (SERT) (Rattus norvegicus, UniProt P31652).
T3 construct: Rat cerebral cortex was homogenized; from tissue; host or cells: rat cerebral cortex
The assay can be described thus: Radioligand binding, [3H]-citalopram, rat cerebral cortex. The following applies: read-out: Serotonergic Ki SERT.
Description: The supernatant was decanted and pellet was re-suspended in 30 volumes of buffer and centrifuged again. The resulting pellet was re-suspended in the same quantity of the buffer and centrifuged third time in the same conditions. […] Ki values were calculated.

The target in the next assay is T4, human D2 receptor (Homo sapiens, UniProt P14416).
T4 construct: expressed in transfected cells; host or cells: CHO-K1
Briefly: Radioligand binding, [3H]-methylspiperon, CHO-K1 cell membranes. The conditions noted are these: read-out: Dopaminergic Ki D2.

Assay [6] concerns rats. The assay can be described thus: FST in rats. It is filed as in vivo.
Description: The experiment was carried out according to the method of Detke et al. [33]. On the first experimental day rats were placed individually in Plexiglas cylinders (40 cm height, 18 cm in diameter) containing 30 cm of water maintained at 25°C for 15 min. After that time the rats were placed for 30 min under a 60-W bulb to dry. 24 hours after the pre-test, the rats were placed again in the cylinders and the total duration of immobility (when a rat remained floating in the water without struggling and was making only those movements necessary to keep its head above water), swimming (when a rat was making active swimming motions, more than necessary to merely maintain its head above water, e.g. moving around in the cylinder) and climbing (when a rat was making active movements with its forepaws in and out of the water, usually directed against the walls) was recorded during the whole 5-min test period. Fresh water was used for each animal.
Another assay concerns the target 5-HT6 receptors. The following applies: authors' former studies; cited from earlier work.
The subject of the next assay is levels of serotonin. Also on record: method as in PMID 9044239. The following applies: mice, 3-day treatment 200 mg/kg; cited from earlier work.
Setting [7] is: 2.5 mg/kg i.p. 30 min before test.
[8] abbreviates: 2.5 mg/kg i.p., pCPA interaction experiment (Fig 8A, 8B).
[9] abbreviates: 5 mg/kg i.p. 30 min before test.
Setting [10] is: i.p., ANOVA over the doses tested.
[11] abbreviates: 1.25 mg/kg i.p. 30 min before test.
[12] abbreviates: pCPA 200 mg/kg i.p. once daily for 3 days.

Entries after “also recorded” stand apart in the source; their conditions may differ. Structures can show the parent of a compound that is named as a salt. Some results are limits rather than exact numbers.

T2 sequence (P34969 whole entry): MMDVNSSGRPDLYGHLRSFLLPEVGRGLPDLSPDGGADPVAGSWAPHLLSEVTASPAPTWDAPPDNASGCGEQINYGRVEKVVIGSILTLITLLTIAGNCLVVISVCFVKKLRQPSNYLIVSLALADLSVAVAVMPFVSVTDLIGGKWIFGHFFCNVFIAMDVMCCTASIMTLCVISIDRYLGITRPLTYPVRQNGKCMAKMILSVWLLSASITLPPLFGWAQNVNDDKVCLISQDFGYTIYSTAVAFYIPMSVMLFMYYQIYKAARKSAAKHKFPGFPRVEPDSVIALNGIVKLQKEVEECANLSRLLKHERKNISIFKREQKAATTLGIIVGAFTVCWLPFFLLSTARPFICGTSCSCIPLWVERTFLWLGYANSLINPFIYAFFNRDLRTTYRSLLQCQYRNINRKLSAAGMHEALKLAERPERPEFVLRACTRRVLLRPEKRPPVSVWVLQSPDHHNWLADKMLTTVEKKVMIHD
T4 sequence (P14416 whole entry): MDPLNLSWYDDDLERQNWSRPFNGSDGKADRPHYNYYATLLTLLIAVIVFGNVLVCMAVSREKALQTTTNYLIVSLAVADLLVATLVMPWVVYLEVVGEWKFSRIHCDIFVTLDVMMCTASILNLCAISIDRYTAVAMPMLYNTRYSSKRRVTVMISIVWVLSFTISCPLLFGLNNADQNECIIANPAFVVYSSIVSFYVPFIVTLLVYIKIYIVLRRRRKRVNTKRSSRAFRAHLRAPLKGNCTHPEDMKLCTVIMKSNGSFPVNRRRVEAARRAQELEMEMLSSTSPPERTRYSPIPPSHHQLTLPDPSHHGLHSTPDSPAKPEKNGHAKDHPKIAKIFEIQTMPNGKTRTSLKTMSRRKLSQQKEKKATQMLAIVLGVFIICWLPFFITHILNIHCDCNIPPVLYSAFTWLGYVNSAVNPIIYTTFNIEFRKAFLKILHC
T3 sequence (P31652 whole entry): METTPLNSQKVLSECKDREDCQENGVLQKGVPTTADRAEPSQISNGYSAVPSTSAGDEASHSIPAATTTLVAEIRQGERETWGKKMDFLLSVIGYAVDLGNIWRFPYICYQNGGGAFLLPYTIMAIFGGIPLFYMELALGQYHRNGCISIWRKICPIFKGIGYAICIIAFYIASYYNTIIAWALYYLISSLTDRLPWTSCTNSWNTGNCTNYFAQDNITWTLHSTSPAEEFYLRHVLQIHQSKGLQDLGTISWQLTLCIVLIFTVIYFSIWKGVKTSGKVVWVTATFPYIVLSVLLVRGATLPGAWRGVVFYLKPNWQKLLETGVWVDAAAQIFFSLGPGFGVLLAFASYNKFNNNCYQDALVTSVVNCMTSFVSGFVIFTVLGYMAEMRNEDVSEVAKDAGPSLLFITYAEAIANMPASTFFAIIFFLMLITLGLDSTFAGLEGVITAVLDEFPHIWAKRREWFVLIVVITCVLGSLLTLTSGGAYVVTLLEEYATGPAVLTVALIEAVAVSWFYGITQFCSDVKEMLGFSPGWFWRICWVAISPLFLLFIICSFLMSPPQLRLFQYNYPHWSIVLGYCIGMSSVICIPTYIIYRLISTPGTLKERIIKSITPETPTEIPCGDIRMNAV
T1 sequence (P28223 whole entry): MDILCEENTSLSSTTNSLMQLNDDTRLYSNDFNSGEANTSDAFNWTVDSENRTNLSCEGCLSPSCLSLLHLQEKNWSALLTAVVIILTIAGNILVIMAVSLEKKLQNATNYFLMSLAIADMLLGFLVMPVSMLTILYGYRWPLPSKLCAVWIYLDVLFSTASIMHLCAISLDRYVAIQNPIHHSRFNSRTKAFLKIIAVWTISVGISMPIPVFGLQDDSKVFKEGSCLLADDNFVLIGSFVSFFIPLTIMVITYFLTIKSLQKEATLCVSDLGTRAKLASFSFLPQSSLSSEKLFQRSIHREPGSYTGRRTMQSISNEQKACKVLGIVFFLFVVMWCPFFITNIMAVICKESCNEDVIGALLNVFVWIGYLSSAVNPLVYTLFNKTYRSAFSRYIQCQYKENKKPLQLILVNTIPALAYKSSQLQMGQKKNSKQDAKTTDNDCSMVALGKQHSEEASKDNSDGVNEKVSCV
Description for human 5-HT2A receptor: Radioligand binding was performed using membranes from CHO-K1 cells stably transfected with the human 5-HT2A receptor. Monolayer of CHO-K1 cells with stable expression of human receptor after reaching about 90% confluence was washed twice with PBS. After that the cells were scrapped and collected to centrifuge tubes. About 20 volumes of assay buffer was added to each tube and cells were homogenized (3 x 10 sec., 24 000 rpm; Ultra Turrax T25B homogenizator, IKA Labortechnik, USA). Tubes were centrifuged (20 min., 30 000 x g, about 4°C; 3K30 centrifuge, Sigma Laborzentrifugen, Germany). Supernatant was discarded and appropriate volume of assay buffer with 10% glycerol was added and homogenization was repeated. Membrane suspension was aliquoted into cryotubes, freezed in liquid nitrogen and stored until assay in -80°C. Membrane protein concentration was determined by BCA method. Immediately before assay frozen membranes were thawed quickly (about 35°C), mixed and homogenized (60 sec., 24,000 rpm) with appropriate volume of assay buffer to reach desired membrane protein concentration. All assays were carried out in duplicates. […] Microplate was covered with a sealing tape, mixed and incubated for 60 minutes at 27°C. […] Radioactivity was counted in MicroBeta2 scintillation counter (PerkinElmer) at approximately 30% efficiency. Inhibition constants (Ki) were calculated.
Description for human D2 receptor: Radioligand binding was performed using membranes from CHO-K1 cells stably transfected with the human D2 receptor. All assays were carried out in duplicates. […] (+)-butaclamol (10 μM) was used to define nonspecific binding. Microplate was covered with a sealing tape, mixed and incubated for 60 minutes at 37°C. The reaction was terminated by rapid filtration through GF/C filter mate pre-soaked with 0.3% polyethyleneimine for 30 minutes. Ten rapid washes with 200 μl 50 mM Tris buffer (4°C, pH 7.4) were performed using automated harvester system Harvester-96 MACH III FM (Tomtec). The filter mates were dried at 37°C in forced air fan incubator and then solid scintillator MeltiLex was melted on filter mates at 90°C for 5 minutes. Radioactivity was counted in MicroBeta2 scintillation counter (PerkinElmer) at approximately 30% efficiency. Ki values were calculated.

Consider `COc1ccccc1N1CCN(CCOCCOc2c(C)cccc2C)CC1` [HBK-14, 1-{2-[2-(2,6-dimethlphenoxy)ethoxy]ethyl}-4-(2-methoxyphenyl)piperazynine hydrochloride], for which the “Increase of the number of punished crossings” value worked out at 68% in the assay on mice [1] (setting [7]), 105% with mice [1] (setting [8]) and 87% in the assay with mice [1] (setting [9]). The inhibitory constant (Ki) is 156 nM on 5-HT7 receptors; 264 nM on human 5-HT2A receptor; 41 nM on 5-HT1A receptors; 23 nM at α1-adrenoceptor; 3500 nM in assay [5]; 219 nM on human D2 receptor. The Ki on 5-HT6 receptors is 9970 nM. For the same compound, the “Increase of the percentage of open-arm entries” value in the assay with rats [2] (setting [7]) amounted to 90%. Further, the “Increase of the percentage of time spent in the open arms” value with rats [2] (setting [7]) was 591%. For the same compound, the “Decrease of immobility time” value in the assay with mice [3] (setting [7]) was 30%; in the assay with mice [3] (setting [9]), 31%; in the assay on rats [6] (setting [9]), 38%. In the assay on mice [3] (2.5 mg/kg i.p., pCPA interaction experiment (Fig 5A)), this compound returned a Reduction of immobility of 25%. In addition, the “Effect on immobility time, given alone at sub-effective dose” value (shortened to “Effect on immobility time, given alone”) in the assay on mice [3] is “none of tested compounds (HBK-14 1.25 mg/kg and HBK-15 0.625 mg/kg) administered alone affected the mouse immobility”. In assay [4], this compound gave a half-inhibitory concentration (IC50) of 77 nM. The Kb in [4] amounted to 24 nM. Moreover, the “Antagonist activity weaker than reference antagonist SB-269970” value in assay [4] is 51-147 fold. Besides, the Emax in assay [4] stood at 19%. The “Increase of swimming behaviour” value in the assay on rats [6] (5 mg/kg i.p.) turned out to be 185%. For the same compound, the “Effect on duration of climbing” value with rats [6] (setting [10]) is “no significant effect”.
Turning to `CN(C)CCCN1c2ccccc2CCc2ccccc21` [Imipramine, imipramine, reference compound], the “Decrease of immobility time” value worked out at 50% with mice [3] (setting [9]) and 51% in the assay on rats [6] (10 mg/kg i.p. 30 min before test). Also, the “Effect on duration of swimming” value with rats [6] (setting [10]) is recorded as “no significant effect”.
With `Cc1ccc(N(CC2=NCCN2)c2cccc(O)c2)cc1` [Phentolamine, phentolamine, reference compound], the Ki at α1-adrenoceptor came out at 9 nM.
Regarding `COc1ccccc1N1CCN(CCOCCOc2c(C)cccc2Cl)CC1` [HBK-15, 2-[2-(2-chloro-6-methylphenoxy)ethoxy]ethyl-4-(2-methoxyphenyl)piperazynine dihydrochloride], the “Increase of the number of punished crossings” value in the assay on mice [1] (setting [7]) was determined as 52%; in the assay with mice [1] (2.5 mg/kg i.p., WAY-100635 interaction experiment (Fig 8C, 8D), 2.5 mg/kg), 111%; in the assay on mice [1] (setting [8]), 109%; in the assay with mice [1] (setting [9]) it was 88%. Further, the Ki at 5-HT7 receptors is 34 nM; at human 5-HT2A receptor it was 109 nM; on 5-HT1A receptors, below 1 nM; on α1-adrenoceptor, 13 nM; in assay [5], 529 nM; at human D2 receptor, 54 nM. The Ki on 5-HT6 receptors is 9620 nM. In addition, in the assay with rats [2] (setting [9]), the “Increase of the percentage of open-arm entries” value was 89%. The “Increase of the percentage of time spent in the open arms” value in the assay on rats [2] (setting [9]) is 198%. In addition, the “Decrease of immobility time” value in the assay with mice [3] (setting [11]) was found to be 40%; in the assay on mice [3] (setting [7]) it was 42%; in the assay on mice [3] (setting [9]) it was 46%; with rats [6] (setting [11]) it was 30%; with rats [6] (setting [7]), 38%. In addition, the Reduction of immobility in the assay on mice [3] (1.25 mg/kg i.p., pCPA interaction experiment (Fig 5B)) stood at 22%. Further, the “Effect on immobility time, given alone” value with mice [3] was “none of tested compounds (HBK-14 1.25 mg/kg and HBK-15 0.625 mg/kg) administered alone affected the mouse immobility”. Besides, the half-inhibitory concentration (IC50) in assay [4] came to 220 nM. Besides, the Kb in assay [4] is 69 nM. Also, the “Antagonist activity weaker than reference antagonist SB-269970” value in [4] is 51-147 fold. Further, in assay [4], the maximal response (Emax) was 0%. For the same compound, the “Increase of swimming time” value was 166% with rats [6] (1.25 mg/kg i.p.) and 191% with rats [6] (2.5 mg/kg i.p.). Besides, the “Effect on duration of climbing” value with rats [6] (setting [10]) is “no significant influence”.
Regarding `CCOc1ccccc1OC(c1ccccc1)C1CNCCO1` (stereo not shown) [reboxetine, reference compound], the “Effect on immobility time, given alone” value in the assay with mice [3] is listed as “did not affect”.
For `CNCCC(Oc1ccc(C(F)(F)F)cc1)c1ccccc1` (stereo not shown) [fluoxetine, reference compound], the “Effect on immobility time, given alone” value in the assay on mice [3] was “did not affect”.
Same read-out and setting: with `CC(NC(C)(C)C)C(=O)c1cccc(Cl)c1` (stereo not shown) [bupropion, reference compound] the entry was “did not affect”.
As to `CN(C)CCC[C@@]1(c2ccc(F)cc2)OCc2cc(C#N)ccc21` [Escitalopram, escitalopram, reference compound], the figures for the “Decrease of immobility time” value with mice [3] (setting [7]) and with rats [6] (30 mg/kg i.p. 30 min before test) were 42% and 48%, respectively. In the assay with rats [6] (30 mg/kg i.p.), this compound returned an Increase of swimming of 171%. Also, the “Effect on duration of climbing” value in the assay with rats [6] (setting [10]) is on record as “no influence”.
Consider `CN1C(=O)CN=C(c2ccccc2)c2cc(Cl)ccc21` [Diazepam, diazepam, reference compound], for which the “Increase of the number of punished crossings” value in the assay on mice [1] (setting [11]) is 62%. Moreover, the “Increase of the number of punished crossings” value in the assay on mice [1] (setting [7]) stood at 73%. In addition, in the assay with rats [2] (setting [7]), the “Increase of the percentage of open-arm entries” value was 131% and the “Increase of the percentage of time spent in the open arms” value worked out at 672%.
Take `N[C@@H](Cc1ccc(Cl)cc1)C(=O)O` (racemic) [pCPA, p-Chlorophenylalanine, reference compound]: the “Effect on the number of punished crossings, given alone” value in the assay with mice [1] (setting [12]) is listed as “showed no effect; also recorded: had no effect”. For the same compound, the “Effect on immobility, given alone” value in the assay with mice [3] (setting [12]) is “did not influence immobility time”. Besides, in the assay on levels of serotonin, the “Reduction of the levels of serotonin in cortex” value is reported as “around 30%”, the “Reduction of the levels of serotonin in diencephalon” value is around 35%, the “Reduction of the levels of serotonin in midbrain” value is reported as around 24% and the “Reduction of the levels of serotonin in pons & medulla” value is listed as around 34%.
Take `COc1ccccc1N1CCN(CCN(C(=O)C2CCCCC2)c2ccccn2)CC1.Cl.Cl.Cl` [WAY-100635, N-{2-[4-(2-methoxyphenyl)-1-piperazinyl]ethyl}-N-(2-pyridinyl)cyclohexanecarboxamide trihydrochloride, reference compound]: in the assay with mice [1] (WAY-100635 0.1 mg/kg s.c., 0.1 mg/kg), the “Effect on the number of punished crossings, given alone” value was “had no effect; also recorded: showed no effect”. Further, the “Effect on duration of immobility time, given alone” value in the assay on mice [3] (WAY-100635 0.1 mg/kg s.c.) was “had no effect”.
